What was measured:
barnyard grass [1] = assay: Test Example 3: herbicidal effect by foliage application, Wagner pot (Table 18, symbol H); type: in vivo, barnyard grass (Echinochloa crus-galli)
Procedure, shortened: (§1)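 Plants were sown in alluvial soil held under 0.1–0.5 cm standing water and grown 14 days in a greenhouse at 25–30 °C. An emulsifiable formulation, water-diluted to the set dose, was then sprayed onto the foliage, and effects were scored three weeks later using previously defined criteria.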

Chinese sprangletop = assay: Test Example 3: herbicidal effect by foliage application, Wagner pot (Table 18, symbol D); type: in vivo, chinese sprangletop (Leptochloa chinensis)
Procedure, shortened: as §1

rice flat sedge = assay: Test Example 3: herbicidal effect by foliage application, Wagner pot (Table 18, symbol E); type: in vivo, rice flat sedge (Cyperus iria)
Procedure, shortened: as §1

southern crabgrass = assay: Test Example 5: herbicidal effect by foliage application, plastic box (Table 20, symbol F); type: in vivo, southern crabgrass (Digitaria ciliaris); conditions: foliage application; for F: southern crabgrass, herbicidal effect: three weeks after application
Procedure, shortened: (§2)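 Plants sown in sterilized diluvial soil and grown 14 days in a greenhouse at 25° C to 30° C, then sprayed on the foliage with the compound's emulsion diluted in water to a predetermined herbicide amount. Injury to weeds and crops scored three weeks after application on a visual rating scale.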

green foxtail = assay: Test Example 5: herbicidal effect by foliage application, plastic box (Table 20, symbol G); type: in vivo, green foxtail (Setaria viridis); conditions: foliage application; for G: green foxtail, herbicidal effect: three weeks after application
Procedure, shortened: as §2

barnyard grass [2] = assay: Test Example 5: herbicidal effect by foliage application, plastic box (Table 20, symbol H); type: in vivo, barnyard grass (Echinochloa crus-galli); conditions: foliage application; for H: barnyard grass, herbicidal effect: three weeks after application
Procedure, shortened: as §2

wild oat = assay: Test Example 5: herbicidal effect by foliage application, plastic box (Table 20, symbol I); type: in vivo, wild oat (Avena fatua); conditions: foliage application; for I: wild oat, herbicidal effect: three weeks after application
Procedure, shortened: as §2

blackgrass = assay: Test Example 5: herbicidal effect by foliage application, plastic box (Table 20, symbol J); type: in vivo, blackgrass (Alopecurus myosuroides); conditions: foliage application; for J: blackgrass, herbicidal effect: three weeks after application
Procedure, shortened: as §2

Italian ryegrass = assay: Test Example 5: herbicidal effect by foliage application, plastic box (Table 20, symbol K); type: in vivo, Italian ryegrass (Lolium multiflorum); conditions: foliage application; for K: Italian ryegrass, herbicidal effect: three weeks after application
Procedure, shortened: as §2

windgrass = assay: Test Example 5: herbicidal effect by foliage application, plastic box (Table 20, symbol L); type: in vivo, windgrass (Apera spica-venti); conditions: foliage application; for L: windgrass, herbicidal effect: three weeks after application
Procedure, shortened: as §2

velvetleaf = assay: Test Example 5: herbicidal effect by foliage application, plastic box (Table 20, symbol M); type: in vivo, velvetleaf (Abutilon theophrasti); conditions: foliage application; for M: velvetleaf, herbicidal effect: three weeks after application
Procedure, shortened: as §2

redroot pigweed = assay: Test Example 5: herbicidal effect by foliage application, plastic box (Table 20, symbol N); type: in vivo, redroot pigweed (Amaranthus retroflexus); conditions: foliage application; for N: redroot pigweed, herbicidal effect: three weeks after application
Procedure, shortened: as §2

lambsquarters = assay: Test Example 5: herbicidal effect by foliage application, plastic box (Table 20, symbol O); type: in vivo, lambsquarters (Chenopodium album); conditions: foliage application; for O: lambsquarters, herbicidal effect: three weeks after application
Procedure, shortened: as §2

chickweed = assay: Test Example 5: herbicidal effect by foliage application, plastic box (Table 20, symbol P); type: in vivo, common chickweed (Stellaria media); conditions: foliage application; for P: chickweed, herbicidal effect: three weeks after application
Description: [Test Example 5] Herbicidal Effect Test by Foliage Application
Sterilized diluvial soil was placed in a plastic box having a length of 21 cm, a width of 13 cm, and a depth of 7 cm. The seeds of each of southern crabgrass, green foxtail, barnyard grass, wild oat, blackgrass, Italian ryegrass, windgrass, velvetleaf, redroot pigweed, lambsquarters, chickweed, false cleavers, persian speedwell, corn, soybean, rice, wheat, beet, and rapeseed were sowed in a spot-like manner and covered with the soil having a thickness of about 1.5 cm. Thereafter, the plants were grown in a greenhouse at 25° C. to 30° C. After 14-day growth of the plants, the emulsion agent of the compound of the present invention prepared according to Formulation Example 2 was diluted with water so as to achieve a predetermined herbicide amount, and the diluted emulsion agent was uniformly applied to a foliage part with a small-sized spray. Three weeks after the herbicide application, the effect of the herbicide on each plant was evaluated according to the criteria of Test Example 1.

persian speedwell = assay: Test Example 5: herbicidal effect by foliage application, plastic box (Table 20, symbol R); type: in vivo, Persian speedwell (Veronica persica); conditions: foliage application; for R: persian speedwell, herbicidal effect: three weeks after application
Procedure, shortened: as §2

[3] = 320 g/ha, evaluated three weeks after application
[4] = amount of applied herbicide 320 g/ha

## COc1cc(C(F)(F)F)ccc1-c1sc2ccccc2c1-c1c(O)c(C)nn(C)c1=O [1-155]
Barnyard grass [1]; 320 g/ha
  herbicidal effect on H (barnyard grass), rating 0-5: 3 (Herbicidal rate of 40% or more and less than 70%)
Chinese sprangletop; 320 g/ha
  herbicidal effect on D (Chinese sprangletop), rating 0-5: 0 (Herbicidal rate of 5% or less (almost no effect))
Rice flat sedge; 320 g/ha
  herbicidal effect on E (rice flat sedge), rating 0-5: 3 (Herbicidal rate of 40% or more and less than 70%)
Southern crabgrass; AAH 320 g/ha
  F: southern crabgrass, herbicidal effect: 0 (Herbicidal rate of 5% or less (almost no effect))
Green foxtail; AAH 320 g/ha
  G: green foxtail, herbicidal effect: 3 (Herbicidal rate of 40% or more and less than 70%)
Barnyard grass [2]; AAH 320 g/ha
  H: barnyard grass, herbicidal effect: 1 (Herbicidal rate of 5% or more and less than 20%)
Wild oat; AAH 320 g/ha
  I: wild oat, herbicidal effect: 1 (Herbicidal rate of 5% or more and less than 20%)
blackgrass; AAH 320 g/ha
  J: blackgrass, herbicidal effect: 4 (Herbicidal rate of 70% or more and less than 90%)
Italian ryegrass; AAH 320 g/ha
  K: Italian ryegrass, herbicidal effect: 4 (Herbicidal rate of 70% or more and less than 90%)
windgrass; AAH 320 g/ha
  L: windgrass, herbicidal effect: 4 (Herbicidal rate of 70% or more and less than 90%)
velvetleaf; AAH 320 g/ha
  M: velvetleaf, herbicidal effect: 0 (Herbicidal rate of 5% or less (almost no effect))
Redroot pigweed; AAH 320 g/ha
  N: redroot pigweed, herbicidal effect: 2 (Herbicidal rate of 20% or more and less than 40%)
lambsquarters; AAH 320 g/ha
  O: lambsquarters, herbicidal effect: 1 (Herbicidal rate of 5% or more and less than 20%)
chickweed; AAH 320 g/ha
  P: chickweed, herbicidal effect: 5 (Herbicidal rate of 90% or more (almost completely withered))
Persian speedwell; AAH 320 g/ha
  R: persian speedwell, herbicidal effect: 4 (Herbicidal rate of 70% or more and less than 90%)

## CCCC(=O)Oc1c(OC)nn(C)c(=O)c1-c1c(-c2ccc(OC(F)(F)F)cc2)sc2ccccc12 [1-163]
Barnyard grass [1]; 80 g/ha
  herbicidal effect on H (barnyard grass), rating 0-5: 1 (Herbicidal rate of 5% or more and less than 20%)
Chinese sprangletop; 80 g/ha
  herbicidal effect on D (Chinese sprangletop), rating 0-5: 3 (Herbicidal rate of 40% or more and less than 70%)
Rice flat sedge; 80 g/ha
  herbicidal effect on E (rice flat sedge), rating 0-5: 0 (Herbicidal rate of 5% or less (almost no effect))
Southern crabgrass; AAH 80 g/ha
  F: southern crabgrass, herbicidal effect: 0 (Herbicidal rate of 5% or less (almost no effect))
Green foxtail; AAH 80 g/ha
  G: green foxtail, herbicidal effect: 0 (Herbicidal rate of 5% or less (almost no effect))
Barnyard grass [2]; AAH 80 g/ha
  H: barnyard grass, herbicidal effect: 0 (Herbicidal rate of 5% or less (almost no effect))
Wild oat; AAH 80 g/ha
  I: wild oat, herbicidal effect: 0 (Herbicidal rate of 5% or less (almost no effect))
blackgrass; AAH 80 g/ha
  J: blackgrass, herbicidal effect: 0 (Herbicidal rate of 5% or less (almost no effect))
Italian ryegrass; AAH 80 g/ha
  K: Italian ryegrass, herbicidal effect: 0 (Herbicidal rate of 5% or less (almost no effect))
windgrass; AAH 80 g/ha
  L: windgrass, herbicidal effect: 0 (Herbicidal rate of 5% or less (almost no effect))
velvetleaf; AAH 80 g/ha
  M: velvetleaf, herbicidal effect: 0 (Herbicidal rate of 5% or less (almost no effect))
Redroot pigweed; AAH 80 g/ha
  N: redroot pigweed, herbicidal effect: 3 (Herbicidal rate of 40% or more and less than 70%)
lambsquarters; AAH 80 g/ha
  O: lambsquarters, herbicidal effect: 2 (Herbicidal rate of 20% or more and less than 40%)
chickweed; AAH 80 g/ha
  P: chickweed, herbicidal effect: 4 (Herbicidal rate of 70% or more and less than 90%)
Persian speedwell; AAH 80 g/ha
  R: persian speedwell, herbicidal effect: 5 (Herbicidal rate of 90% or more (almost completely withered))

## COC(=O)COc1ccc(-c2sc3ccc(F)cc3c2-c2c(O)c(C)nn(C)c2=O)cc1 [2-070]
Barnyard grass [1]; 320 g/ha
  herbicidal effect on H (barnyard grass), rating 0-5: 2 (Herbicidal rate of 20% or more and less than 40%)
Chinese sprangletop; 320 g/ha
  herbicidal effect on D (Chinese sprangletop), rating 0-5: 0 (Herbicidal rate of 5% or less (almost no effect))
Rice flat sedge; 320 g/ha
  herbicidal effect on E (rice flat sedge), rating 0-5: 0 (Herbicidal rate of 5% or less (almost no effect))
Southern crabgrass; [3]
  herbicidal effect on F: southern crabgrass: 0 (Herbicidal rate of 5% or less (almost no effect))
Green foxtail; [3]
  herbicidal effect on G: green foxtail: 0 (Herbicidal rate of 5% or less (almost no effect))
Barnyard grass [2]; [3]
  herbicidal effect on H: barnyard grass: 0 (Herbicidal rate of 5% or less (almost no effect))
Wild oat; [3]
  herbicidal effect on I: wild oat: 0 (Herbicidal rate of 5% or less (almost no effect))
blackgrass; [3]
  herbicidal effect on J: blackgrass: 0 (Herbicidal rate of 5% or less (almost no effect))
Italian ryegrass; [3]
  herbicidal effect on K: Italian ryegrass: 0 (Herbicidal rate of 5% or less (almost no effect))
windgrass; [3]
  herbicidal effect on L: windgrass: 0 (Herbicidal rate of 5% or less (almost no effect))
velvetleaf; [3]
  herbicidal effect on M: velvetleaf: 0 (Herbicidal rate of 5% or less (almost no effect))
Redroot pigweed; [3]
  herbicidal effect on N: redroot pigweed: 2 (Herbicidal rate of 20% or more and less than 40%)
lambsquarters; [3]
  herbicidal effect on O: lambsquarters: 0 (Herbicidal rate of 5% or less (almost no effect))
chickweed; [3]
  herbicidal effect on P: chickweed: 0 (Herbicidal rate of 5% or less (almost no effect))
Persian speedwell; [3]
  herbicidal effect on R: persian speedwell: 0 (Herbicidal rate of 5% or less (almost no effect))

## Cc1nn(C)c(=O)c(-c2c(-c3ccc(Oc4ccccc4)cc3)sc3ccc(F)cc23)c1O [2-072]
Barnyard grass [1]; 320 g/ha
  herbicidal effect on H (barnyard grass), rating 0-5: 2 (Herbicidal rate of 20% or more and less than 40%)
Chinese sprangletop; 320 g/ha
  herbicidal effect on D (Chinese sprangletop), rating 0-5: 3 (Herbicidal rate of 40% or more and less than 70%)
Rice flat sedge; 320 g/ha
  herbicidal effect on E (rice flat sedge), rating 0-5: 5 (Herbicidal rate of 90% or more (almost completely withered))
Southern crabgrass; [3]
  herbicidal effect on F: southern crabgrass: 0 (Herbicidal rate of 5% or less (almost no effect))
Green foxtail; [3]
  herbicidal effect on G: green foxtail: 0 (Herbicidal rate of 5% or less (almost no effect))
Barnyard grass [2]; [3]
  herbicidal effect on H: barnyard grass: 0 (Herbicidal rate of 5% or less (almost no effect))
Wild oat; [3]
  herbicidal effect on I: wild oat: 0 (Herbicidal rate of 5% or less (almost no effect))
blackgrass; [3]
  herbicidal effect on J: blackgrass: 0 (Herbicidal rate of 5% or less (almost no effect))
Italian ryegrass; [3]
  herbicidal effect on K: Italian ryegrass: 0 (Herbicidal rate of 5% or less (almost no effect))
windgrass; [3]
  herbicidal effect on L: windgrass: 0 (Herbicidal rate of 5% or less (almost no effect))
velvetleaf; [3]
  herbicidal effect on M: velvetleaf: 2 (Herbicidal rate of 20% or more and less than 40%)
Redroot pigweed; [3]
  herbicidal effect on N: redroot pigweed: 3 (Herbicidal rate of 40% or more and less than 70%)
lambsquarters; [3]
  herbicidal effect on O: lambsquarters: 1 (Herbicidal rate of 5% or more and less than 20%)
chickweed; [3]
  herbicidal effect on P: chickweed: 0 (Herbicidal rate of 5% or less (almost no effect))
Persian speedwell; [3]
  herbicidal effect on R: persian speedwell: 5 (Herbicidal rate of 90% or more (almost completely withered))

## CSc1ccccc1-c1sc2ccc(C)cc2c1-c1c(O)c(C)nn(C)c1=O [2-142]
Barnyard grass [1]; [4]
  herbicidal effect on H: barnyard grass: 2 (Herbicidal rate of 20% or more and less than 40%)
Chinese sprangletop; [4]
  herbicidal effect on D: Chinese sprangletop: 0 (Herbicidal rate of 5% or less (almost no effect))
Rice flat sedge; [4]
  herbicidal effect on E: rice flat sedge: 2 (Herbicidal rate of 20% or more and less than 40%)
Southern crabgrass; [3]
  herbicidal effect on F: southern crabgrass (criteria 0-5): 0 (Herbicidal rate of 5% or less (almost no effect))
Green foxtail; [3]
  herbicidal effect on G: green foxtail (criteria 0-5): 0 (Herbicidal rate of 5% or less (almost no effect))
Barnyard grass [2]; [3]
  herbicidal effect on H: barnyard grass (criteria 0-5): 0 (Herbicidal rate of 5% or less (almost no effect))
Wild oat; [3]
  herbicidal effect on I: wild oat (criteria 0-5): 1 (Herbicidal rate of 5% or more and less than 20%)
blackgrass; [3]
  herbicidal effect on J: blackgrass (criteria 0-5): 1 (Herbicidal rate of 5% or more and less than 20%)
Italian ryegrass; [3]
  herbicidal effect on K: Italian ryegrass (criteria 0-5): 1 (Herbicidal rate of 5% or more and less than 20%)
windgrass; [3]
  herbicidal effect on L: windgrass (criteria 0-5): 0 (Herbicidal rate of 5% or less (almost no effect))
velvetleaf; [3]
  herbicidal effect on M: velvetleaf (criteria 0-5): 0 (Herbicidal rate of 5% or less (almost no effect))
Redroot pigweed; [3]
  herbicidal effect on N: redroot pigweed (criteria 0-5): 0 (Herbicidal rate of 5% or less (almost no effect))
lambsquarters; [3]
  herbicidal effect on O: lambsquarters (criteria 0-5): 0 (Herbicidal rate of 5% or less (almost no effect))
chickweed; [3]
  herbicidal effect on P: chickweed (criteria 0-5): 4 (Herbicidal rate of 70% or more and less than 90%)
Persian speedwell; [3]
  herbicidal effect on R: persian speedwell (criteria 0-5): 3 (Herbicidal rate of 40% or more and less than 70%)
